The source of these data is patent US4962109A, “Insecticidally and acaricidally active pyrimidine esters and intermediates therefor” (Imperial Chemical Industries PLC, priority 1985, dated 1990).

Each structure is given as a SMILES string.

What all share (format): in vivo
For one experiment, the system named is insect and acarine pests. Put plainly: Biological screening of enantiomers, insecticidal and acaricidal activity. To be noted: (-) versus (+) enantiomer.
The subject of experiment [1] is Tetranychus urticae (spider mites - adult). Put plainly: Contact test on spider mites - adult (TUa), French bean leaf, mortality. To be noted: 72 h, 500 ppm, contact, 3 days, read-out: TUa grading of mortality. The method in brief: (§1)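 Pests were supported on a host plant or food medium, and either or both were treated with preparations at 500, 250 or 100 ppm by weight. Mortality was assessed one to three days afterwards and banded into three grades, from A (80-100%) down to C (under 50%).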

Experiment [2] deals with Tetranychus urticae (spider mites - ova). Put plainly: Contact test on spider mites - ova (TUe), French bean leaf, mortality. Conditions: 144 h, 500 ppm, contact, 6 days, read-out: TUe grading of mortality. The method in brief:
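Graded read-out: A 80-100%, B 50-79%, C below 50% mortality or knockdown, assessed usually 1-3 days post-treatment. Liquid preparations at 500, 250 or 100 ppm by weight, from acetone solution diluted in water with 0.01% wetting agent, applied to pests and/or their host plant or food medium.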

A further experiment concerns Myzus persicae (aphids). The experiment is described as follows: Contact test on aphids (MP), Chinese Cabbage leaf, mortality. To be noted: 72 h, 500 ppm, contact, 3 days, read-out: MP grading of mortality. Put shortly: as §1
The subject of experiment [3] is Nilaparvata lugens (brown plant hopper). Put plainly: Contact test on brown plant hopper (NL), Rice plant, mortality. To be noted: 72 h, 3 days, read-out: NL grading of mortality. The method, then:
The activity of the Product was determined using a variety of insect pests. The Product was used in the form of liquid preparations containing 500, 250 or 100 parts per million (ppm) by weight of the Product. The preparations were made by dissolving the Product in acetone and diluting the solutions with water containing 0.01% by weight of a wetting agent sold under the trade name "LISSAPOL" NX until the liquid preparations contained the required concentration of the Product. "Lissapol" is a Registered Trade Mark.
The test procedure adopted with regard to each pest was basically the same and comprised supporting a number of the pests on a medium which was usually a host plant or a foodstuff on which the pests feed, and treating either or both the pests and the medium with the preparations. The mortality of the pests was then assessed at periods usually varying from one to three days after the treatment.
The results of the tests are given in Table III for each of the Products, at the rate in parts per million given in the second column as a grading of mortality designated as A, B or C wherein A indicates 80-100% mortality or knockdown, B indicates 50-79% mortality or knockdown and C indicates less than 50% mortality or knockdown.

Experiment [4] relates to Musca domestica (houseflies - adults). The experiment is described as follows: Knockdown test on houseflies - adults (MD/KD), Cotton wool/sugar. To be noted: 500 ppm, 4 hours, read-out: MD/KD grading of knockdown. The method in brief:
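Adult houseflies exposed to the compound at 500, 250 or 100 ppm in acetone/water with 0.01% wetting agent, on a cotton wool/sugar medium. Knockdown and mortality assessed, graded A (80-100%), B (50-79%) or C (<50%).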

Experiment [5] shares this test system. The experiment is described as follows: Contact test on houseflies - adults (MD), Cotton wool/sugar, mortality. Conditions: 24 h, 500 ppm, contact, ** test duration of 1 day, read-out: MD grading of mortality. The method in brief:
as §1

The test system of experiment [6] is Blattella germanica (cockroach nymphs). Put plainly: Residual test on cockroach nymphs (BG/R), Plastic pot, mortality. To be noted: 72 h, 3 days, read-out: BG/R grading of mortality.
In experiment [7] the test system is Heliothis virescens (tobacco budworm - larvae). The experiment is described as follows: Residual test on tobacco budworm larvae (HV), Cotton leaf, mortality. Conditions: 48 h, read-out: HV grading of mortality. Put shortly:
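Product in acetone diluted with water containing 0.01% Lissapol NX, at 500, 250 or 100 ppm; pests and/or host medium (here cotton leaf) treated. Mortality scored one to three days later, graded A (80-100%), B (50-79%), C (<50%).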

The test system of experiment [8] is Spodoptera exigua (lesser army worm - larvae). The experiment is described as follows: Residual test on lesser army worm larvae (SP), Cotton leaf, mortality. To be noted: 48 h, 500 ppm, residual, * test duration of 3 days, read-out: SP grading of mortality. The method in brief:
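Product dissolved in acetone and diluted in water with 0.01% wetting agent to 500, 250 or 100 ppm; larvae and/or cotton leaf host treated. Mortality or knockdown scored one to three days later and graded A (80-100%), B (50-79%) or C (<50%).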

The subject of experiment [9] is Diabrotica balteata (rootworm larvae). Put plainly: Residual test on rootworm larvae (DB), Filter paper/maize seed, mortality. To be noted: 48 h, 500 ppm, residual, * test duration of 3 days, read-out: DB grading of mortality. The method in brief:
as §1

Turning to `COCc1c(F)c(F)c(COC(=O)C(c2cnc(C(C)(C)C)nc2)C(C)(C)C)c(F)c1F` (single isomer, unassigned; enantiomer 4) [(-)-enantiomer, 4-(methoxymethyl)-2,3,5,6-tetrafluorobenzyl 2-[2-(1,1-dimethylethyl)pyrimidin-5-yl]-3,3-dimethylbutanoate], the “insecticidal and acaricidal activity of enantiomers” value in the experiment with insect and acarine pests is “substantially greater insecticidal and acaricidal activity than the (+)-enantiomer”.
On to `C=CCc1c(F)c(F)c(COC(=O)C(c2cnc(C(Cl)(Cl)Cl)nc2)C(C)C)c(F)c1F` (racemic) [Compound 117, 2,3,5,6-tetrafluoro-4-(prop-2-en-1-yl)benzyl (RS)-2-(2-trichloromethylpyrimidin-5-yl)-3-methylbutanoate], for which the mortality at 500 ppm (in [1]; in [2]; with Myzus persicae (aphids); in experiment [3]; in experiment [5]; in [6]) was 80 to 100% throughout. Also, the figures for the mortality at 500 ppm in [7], in experiment [8] and in [9] were 80 to 100%, 80 to 100% and 50 to 79%, respectively. The pest or weed control at 500 ppm in [4] fell in the range of 80 to 100%.
